Data taken from US7834005B2, “Pyrrolobenzodiazepine derivatives, compositions comprising the same and methods related thereto” (The United States of America as represented by the …, priority 2003, dated 2010).
Where “and” joins values, the source holds several entries; their conditions need not be identical. Equal values may be shown once.

How the values were obtained:
[1] = in vivo efficacy, summary over 8 subcutaneous tumor models; design: species or system athymic mice; conditions: mouse, in vivo, intravenous; athymic mice, qDx5 schedule, prepared fresh in 1% EtOH vehicle; read-out: maximum tolerated dose
Experimental: (§1) NSC 694501 was evaluated for in vivo efficacy in athymic mice bearing 8 subcutaneous tumor models: LOX and UACC-62 (melanoma), OVCAR-3 and OVCAR-5 (ovarian ca), MDA-MB-435 (breastca), SF-295 and C-6 (glioma), and LS-174T (colonca). The models were selected on the basis of hollow fiber assays and in vitro time course assays.
(§2) A qDx5 schedule conferred better efficacy than a q4Dx3 schedule in each of the 4 models tested on two schedules. NSC 694501 was active over a wide dosage range in athymic mice using compound prepared fresh just prior to injection in 1% EtOH vehicle: On a qDx5 schedule, the maximum tolerated dose was approximately 120 μg/kg/dose and the minimum effective dose in one of the most sensitive models (SF-295) was 16 μg/kg/dose.

[2] = test system: 8 subcutaneous tumor models; test: as above; design: species or system athymic mice
Experimental: as §1, §2

[3] = in vivo efficacy, MDA-MB-435 (breastca) subcutaneous tumor model; design: species or system athymic mice; conditions: athymic, mouse, in vivo; MDA-MB-435, Early-SC, Q4D X3, intravenous
Experimental: as §1, §2

[4] = test system: MDA-MB-435 (breastca); test: as above; design: species or system athymic mice; conditions: MDA-MB-435, Early-SC, Q4D X3, 0.45 mg/kg/dose, intravenous
Experimental: as §1, §2

[5] = test system: OVCAR-3 (ovarian ca); test: in vivo efficacy, OVCAR-3 (ovarian ca) subcutaneous tumor model; design: species or system athymic mice; conditions: OVCAR-3, Early-SC, intravenous
Experimental: as §1, §2

[6] = as above; design: species or system athymic mice; conditions: athymic, mouse, in vivo, OVCAR-3, Early-SC
Experimental: as §1, §2

[7] = test system: SF-295 (glioma); test: in vivo efficacy, SF-295 (glioma) subcutaneous tumor model; design: species or system athymic mice; conditions: for BW Loss / Growth Delay % [(T − C)/C] / Optimal % T/C / value in parentheses in Growth Delay column / tumor free (tf): SF-295, Early-SC, intravenous
Experimental: as §1, §2

[8] = as above; design: species or system athymic mice; conditions: athymic, mouse, in vivo, SF-295, Early-SC
Experimental: as §1, §2

[9] = test system: standard panel of 12 tumor cell lines; test: hollow fiber assay; type: in vivo, mice
Experimental: A standard panel of 12 tumor cell lines was used for the routine hollow fiber screening. These included NCI-H23, NCI-H522, MDA-MB-231, MDA-MB-435, SW-620, COLO 205, LOX, UACC-62, OVCAR-3, OVCAR-5, U251 and SF-295. In addition, alternate lines were used for specialized testing of compounds on a nonroutine basis. The cell lines were cultivated in RPMI-1640 containing 10% FBS and 2 mM glutamine. On the day preceeding hollow fiber preparation, the cells were given a supplementation of fresh medium to maintain log phase growth. For fiber preparation, the cells were harvested by standard trypsinization technique and resuspended at the desired cell density ((2-10×10^6 cells/ml). The cell suspension was flushed into 1 mm (internal diameter) polyvinylidene fluoride hollow fibers with a molecular weight exclusion of 500,000 Da. The hollow fibers were heat-sealed at 2 cm intervals and the samples generated from these seals were placed into tissue culture medium and incubated at 37° C. in 5% CO2 for 24 to 48 hours prior to implantation. A total of 3 different tumor lines were prepared for each experiment so that each mouse receives 3 intraperitoneal implants (1 of each tumor line) and 3 subcutaneous implants (1 of each tumor line). On the day of implantation, samples of each tumor cell line preparation were quantitated for viable cell mass by a stable endpoint MTT assay so that the time zero cell mass is known. Mice were treated with experimental agents starting on day 3 or 4 following fiber implantation and continuing daily for 4 days. Each agent was administered by intraperitoneal injection at 2 dose levels. The fibers were collected from the mice on the day following the fourth compound treatment and subjected to the stable endpoint MTT assay. The optical density of each sample was determined spectrophotometrically at 540 nm and the mean of each treatment group was calculated. The percent net growth for each cell line in each treatment group was calculated and compared to the percent net growth in the vehicle treated controls. A 50% or greater reduction in percent net growth in the treated samples compared to the vehicle control samples was considered a positive result. Each positive result was given a score of 2 and all of the scores were totaled for a given compound. The maximum possible score for an agent is 96 (12 cell lines×2 sites×2 dose levels×2 [score]).

C=C1C[C@H]2C=Nc3cc(OCCCOc4cc5c(cc4OC)C(=O)N4CC(=C)C[C@H]4C=N5)c(OC)cc3C(=O)N2C1 [NSC 694501]
MTD at 5 days [1]: ~0.12 mg/kg | cell kill ([2]; i.v bolus): multi-log cell kill in 4 models | growth delays ([2]; i.v bolus): significant growth delays in 7 models | activity in tumor models ([2]; i.v bolus drug delivery): active in each of the 8 tumor models | MTD at 9 days [3]: 0.45 mg/kg | BW Loss [4]: 19.8% | Growth Delay % [(T − C)/C] [4]: 41% | Optimal % T/C [4]: 3% | tumor free (tf) [4]: 1 tf | BW Loss ([5]; Q4D X3, 0.45 mg/kg/dose): 6.6% and 13.9% | Growth Delay % [(T − C)/C] ([5]; Q4D X3, 0.45 mg/kg/dose): 73% and 55% | Optimal % T/C ([5]; Q4D X3, 0.45 mg/kg/dose): 20% and 10% | BW Loss ([5]; QD X5, .27 mg/kg/dose): 7.9% | Growth Delay % [(T − C)/C] ([5]; QD X5, .27 mg/kg/dose): 114% | Optimal % T/C ([5]; QD X5, .27 mg/kg/dose): 9% | value in parentheses in Growth Delay column ([5]; QD X5, .27 mg/kg/dose): 1.9 L | MTD at 9 days ([6]; Q4D X3, intravenous): 0.45 mg/kg | MTD at 5 days ([6]; QD X5, intravenous): 0.27 mg/kg | BW Loss ([7]; Q4D X3, 0.11 mg/kg/dose): 0.1% | Growth Delay % [(T − C)/C] ([7]; Q4D X3, 0.11 mg/kg/dose): 60% | Optimal % T/C ([7]; Q4D X3, 0.11 mg/kg/dose): 10% | value in parentheses in Growth Delay column ([7]; Q4D X3, 0.11 mg/kg/dose): 0.0 L | BW Loss ([7]; Q4D X3, 0.16 mg/kg/dose): 4.3% | Growth Delay % [(T − C)/C] ([7]; Q4D X3, 0.16 mg/kg/dose): 103% | Optimal % T/C ([7]; Q4D X3, 0.16 mg/kg/dose): 3% | value in parentheses in Growth Delay column ([7]; Q4D X3, 0.16 mg/kg/dose): 0.9 L | BW Loss ([7]; Q4D X3, 0.24 mg/kg/dose): 10.2% | Growth Delay % [(T − C)/C] ([7]; Q4D X3, 0.24 mg/kg/dose): 227% | Optimal % T/C ([7]; Q4D X3, 0.24 mg/kg/dose): 1 (1 tf) % | tumor free (tf) ([7]; Q4D X3, 0.24 mg/kg/dose): 1 (1 tf) | value in parentheses in Growth Delay column ([7]; Q4D X3, 0.24 mg/kg/dose): 3.2 L | BW Loss ([7]; Q4D X3, <0.30 mg/kg/dose): 24.0% | tumor free (tf) ([7]; Q4D X3, <0.30 mg/kg/dose, T/C unevaluable): ue (2 tf) | BW Loss ([7]; QD X5, 0.016 mg/kg/dose): 0.0% | Growth Delay % [(T − C)/C] ([7]; QD X5, 0.016 mg/kg/dose): 31% | Optimal % T/C ([7]; QD X5, 0.016 mg/kg/dose): 33% | BW Loss ([7]; QD X5, 0.024 mg/kg/dose): 3.6% | Growth Delay % [(T − C)/C] ([7]; QD X5, 0.024 mg/kg/dose): 61% | Optimal % T/C ([7]; QD X5, 0.024 mg/kg/dose): 12% | BW Loss ([7]; QD X5, 0.036 mg/kg/dose): 3.5% | Growth Delay % [(T − C)/C] ([7]; QD X5, 0.036 mg/kg/dose): 69% | Optimal % T/C ([7]; QD X5, 0.036 mg/kg/dose): 14% | BW Loss ([7]; QD X5, 0.054 mg/kg/dose): 4.7% and 2.8% | Growth Delay % [(T − C)/C] ([7]; QD X5, 0.054 mg/kg/dose): 165% and 206% | Optimal % T/C ([7]; QD X5, 0.054 mg/kg/dose): 2% and 0% | tumor free (tf) ([7]; QD X5, 0.054 mg/kg/dose): 1 tf | value in parentheses in Growth Delay column ([7]; QD X5, 0.054 mg/kg/dose): 2.6 L and 3.0 L | BW Loss ([7]; QD X5, 0.08 mg/kg/dose): 0.0% | Growth Delay % [(T − C)/C] ([7]; QD X5, 0.08 mg/kg/dose): 131% | Optimal % T/C ([7]; QD X5, 0.08 mg/kg/dose): 3% | value in parentheses in Growth Delay column ([7]; QD X5, 0.08 mg/kg/dose): 2.0 L | BW Loss ([7]; QD X5, 0.12 mg/kg/dose): 7.5% and 5.3% | Growth Delay % [(T − C)/C] ([7]; QD X5, 0.12 mg/kg/dose): 241% and 196% | Optimal % T/C ([7]; QD X5, 0.12 mg/kg/dose): 4 (4 tf) % and 2 (2 tf) % | tumor free (tf) ([7]; QD X5, 0.12 mg/kg/dose): 4 (4 tf) and 2 (2 tf) | value in parentheses in Growth Delay column ([7]; QD X5, 0.12 mg/kg/dose): 3.1 L and 3.2 L | minimum effective dose ([7]; SF-295, qDx5 schedule, athymic mice): 16 μg/kg/dose | MTD at 9 days ([8]; Q4D X3, intravenous): < 0.3 mg/kg | MTD at 5 days ([8]; QD X5, intravenous): 0.12 mg/kg | cell lines killed ([9]; hollow fiber assay): three cell lines killed: UACC-62 melanoma, OVCAR-3 ovarian cancer, and MDA-MB-435 breast cancer | hollow fiber assay score, intraperitoneal [i.p.] ([9]; intraperitoneal implants): 40 | hollow fiber assay total score ([9]; ip + sc, maximum possible score 96): 54 | hollow fiber assay score, subcutaneous [s.c.] ([9]; subcutaneous implants): 14
